In article PMC12155096 (International Journal of Molecular Sciences, 2025):
pIC50: −log10 of the molar value. Where two headings read alike, the source gives them in different places.

Assays:
[1] = biological target: Photinus pyralis (firefly) luciferase (Photinus pyralis, UniProt P08659); test: biochemical; type: biochemical
human CYP1A2 [2] = biological target: T1, human CYP1A2 (Homo sapiens, UniProt P05177); test: biochemical; details: for AC50: CYP1A2 AC50 (half-maximal activity concentration)
T1 sequence (P05177 1-516): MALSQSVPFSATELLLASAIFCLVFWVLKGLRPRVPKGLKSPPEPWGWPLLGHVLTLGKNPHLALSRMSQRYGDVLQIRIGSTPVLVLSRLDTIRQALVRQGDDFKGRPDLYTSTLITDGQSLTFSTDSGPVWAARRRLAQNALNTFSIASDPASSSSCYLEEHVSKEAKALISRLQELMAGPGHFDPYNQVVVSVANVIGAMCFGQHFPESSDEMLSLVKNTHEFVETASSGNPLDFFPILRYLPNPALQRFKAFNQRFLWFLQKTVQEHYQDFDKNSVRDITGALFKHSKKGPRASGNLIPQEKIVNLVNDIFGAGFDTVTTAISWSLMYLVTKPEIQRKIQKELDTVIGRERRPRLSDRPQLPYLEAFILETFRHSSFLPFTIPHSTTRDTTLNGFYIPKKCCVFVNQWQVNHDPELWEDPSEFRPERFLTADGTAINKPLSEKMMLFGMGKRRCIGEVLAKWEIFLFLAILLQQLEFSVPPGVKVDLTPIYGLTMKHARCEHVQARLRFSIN

human CYP2C9 [3] = biological target: T2, human CYP2C9 (Homo sapiens, UniProt P11712); test: biochemical
T2 sequence (P11712 whole entry): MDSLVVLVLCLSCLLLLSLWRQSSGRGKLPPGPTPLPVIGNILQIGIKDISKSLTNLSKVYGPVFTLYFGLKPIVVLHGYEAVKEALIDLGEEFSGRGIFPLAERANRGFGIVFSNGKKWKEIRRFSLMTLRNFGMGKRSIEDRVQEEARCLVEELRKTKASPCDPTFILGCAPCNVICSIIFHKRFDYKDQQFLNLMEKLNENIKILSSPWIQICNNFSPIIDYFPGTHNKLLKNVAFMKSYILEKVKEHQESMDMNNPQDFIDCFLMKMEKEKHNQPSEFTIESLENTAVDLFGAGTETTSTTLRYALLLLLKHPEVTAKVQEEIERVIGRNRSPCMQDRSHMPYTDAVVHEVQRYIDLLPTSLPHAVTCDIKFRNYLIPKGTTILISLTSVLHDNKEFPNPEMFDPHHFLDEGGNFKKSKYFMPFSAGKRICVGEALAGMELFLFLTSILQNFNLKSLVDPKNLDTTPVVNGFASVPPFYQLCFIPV

human CYP2C19 = human CYP2C19 (Homo sapiens, UniProt P33261); test: biochemical; details: for AC50: CYP2C19 AC50 (half-maximal activity concentration)
Sequence of human CYP2C19 (P33261 whole entry): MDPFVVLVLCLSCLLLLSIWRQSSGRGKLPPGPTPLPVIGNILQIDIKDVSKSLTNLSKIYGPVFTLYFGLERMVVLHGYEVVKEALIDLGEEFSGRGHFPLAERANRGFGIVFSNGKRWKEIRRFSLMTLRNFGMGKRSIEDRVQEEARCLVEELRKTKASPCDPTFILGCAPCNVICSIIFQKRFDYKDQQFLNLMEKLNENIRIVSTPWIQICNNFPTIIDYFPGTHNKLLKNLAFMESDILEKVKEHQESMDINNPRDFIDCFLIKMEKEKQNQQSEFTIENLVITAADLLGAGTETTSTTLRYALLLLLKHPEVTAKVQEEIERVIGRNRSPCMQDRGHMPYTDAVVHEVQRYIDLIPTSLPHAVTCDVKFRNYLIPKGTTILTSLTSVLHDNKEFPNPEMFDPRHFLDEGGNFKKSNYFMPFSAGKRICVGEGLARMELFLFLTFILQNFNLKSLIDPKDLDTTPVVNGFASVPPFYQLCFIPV

human CYP2D6 = human CYP2D6 (Homo sapiens, UniProt P10635); test: biochemical; details: for AC50: CYP2D6 AC50 (half-maximal activity concentration)
Sequence of human CYP2D6 (P10635 whole entry): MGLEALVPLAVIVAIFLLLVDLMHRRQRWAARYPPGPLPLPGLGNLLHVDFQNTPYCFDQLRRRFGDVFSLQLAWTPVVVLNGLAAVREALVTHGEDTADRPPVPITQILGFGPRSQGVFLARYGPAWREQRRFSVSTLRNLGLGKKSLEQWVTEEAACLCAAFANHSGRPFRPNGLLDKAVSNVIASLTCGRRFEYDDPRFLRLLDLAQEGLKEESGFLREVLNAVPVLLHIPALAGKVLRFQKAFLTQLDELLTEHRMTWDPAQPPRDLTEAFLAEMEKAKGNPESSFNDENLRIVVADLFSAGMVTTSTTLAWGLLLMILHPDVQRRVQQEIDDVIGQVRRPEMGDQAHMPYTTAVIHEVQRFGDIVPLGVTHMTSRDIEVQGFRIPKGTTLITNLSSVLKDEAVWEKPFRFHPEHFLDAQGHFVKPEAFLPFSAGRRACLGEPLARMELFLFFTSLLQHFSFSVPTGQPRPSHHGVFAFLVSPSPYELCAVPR

CYP3A4 = CYP3A4 (Homo sapiens, UniProt P08684); test: biochemical; details: for AC50: CYP3A4 AC50 (half-maximal activity concentration)
Sequence of CYP3A4 (P08684 whole entry): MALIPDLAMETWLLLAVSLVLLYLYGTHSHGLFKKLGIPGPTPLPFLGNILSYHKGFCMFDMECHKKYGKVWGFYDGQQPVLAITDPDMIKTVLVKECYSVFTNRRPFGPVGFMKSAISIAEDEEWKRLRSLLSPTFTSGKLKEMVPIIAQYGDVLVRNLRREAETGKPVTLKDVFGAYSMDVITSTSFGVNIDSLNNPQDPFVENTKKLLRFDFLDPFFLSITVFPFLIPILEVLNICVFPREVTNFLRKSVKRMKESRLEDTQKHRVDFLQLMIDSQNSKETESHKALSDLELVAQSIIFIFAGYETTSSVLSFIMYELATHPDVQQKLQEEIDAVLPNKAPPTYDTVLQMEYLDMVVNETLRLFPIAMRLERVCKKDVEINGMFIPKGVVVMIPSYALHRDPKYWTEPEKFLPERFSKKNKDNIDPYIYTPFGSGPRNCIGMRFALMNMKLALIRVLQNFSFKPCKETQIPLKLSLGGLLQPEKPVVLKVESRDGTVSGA

human CYP1A2 [4] = biological target: T1, human CYP1A2
human CYP2C9 [5] = biological target: T2, human CYP2C9
[6] = CYP1A2 IC50 (half-maximal inhibitory concentration)
[7] = CYP2C9 IC50 (half-maximal inhibitory concentration)
[8] = CYP2C19 IC50 (half-maximal inhibitory concentration)
[9] = CYP2D6 IC50 (half-maximal inhibitory concentration)
[10] = CYP3A4 IC50 (half-maximal inhibitory concentration)

Sequence of Photinus pyralis (firefly) luciferase (P08659 whole entry): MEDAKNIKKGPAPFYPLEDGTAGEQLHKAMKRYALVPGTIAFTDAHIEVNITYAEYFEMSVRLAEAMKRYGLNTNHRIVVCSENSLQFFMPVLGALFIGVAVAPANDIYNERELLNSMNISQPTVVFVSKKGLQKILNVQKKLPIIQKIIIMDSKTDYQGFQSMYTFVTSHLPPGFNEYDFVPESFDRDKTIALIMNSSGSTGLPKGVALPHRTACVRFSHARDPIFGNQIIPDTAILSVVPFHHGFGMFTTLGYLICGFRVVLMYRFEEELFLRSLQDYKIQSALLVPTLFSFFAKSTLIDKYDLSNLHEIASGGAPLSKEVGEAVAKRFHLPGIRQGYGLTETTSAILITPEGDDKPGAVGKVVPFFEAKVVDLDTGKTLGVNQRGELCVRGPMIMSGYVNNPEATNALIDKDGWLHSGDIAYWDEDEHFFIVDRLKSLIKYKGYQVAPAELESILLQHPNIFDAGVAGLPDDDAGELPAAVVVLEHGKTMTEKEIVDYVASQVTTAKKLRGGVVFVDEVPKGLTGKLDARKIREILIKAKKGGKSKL

Row | Compound | pIC50 (human CYP2C19; CYP2C19 IC50) | pIC50 (CYP3A4; CYP3A4 IC50) | pIC50 (human CYP1A2 [2]; [6]) | pIC50 (human CYP2C9 [3]; [7]) | pIC50 (human CYP2C19; [8]) | pIC50 (human CYP2D6; [9]) | pIC50 (CYP3A4; [10]) | pIC50 [1] | also measured
1 | c1ccc2sc(SN(C3CCCCC3)C3CCCCC3)nc2c1 | 4.81 | 5.29 | – | – | – | – | – | – | Luciferase IC50 [1]: Inactive; pIC50 (human CYP1A2 [2]; CYP1A2 IC50): 4.48; pIC50 (human CYP2C9 [3]; CYP2C9 IC50): 5.05; pIC50 (human CYP2D6; CYP2D6 IC50): 6.25
2 | Fc1ccc([C@]2(Cn3cncn3)O[C@H]2c2ccccc2Cl)cc1 (racemic) [Epoxiconazole] | – | – | 5.41 | 5.25 | 6.47 | 4.43 | 6.04 | – | Luciferase IC50 (half-maximal inhibitory concentration) [1]: Inactive
3 | CC(C)(C)[C@@H](O)[C@@H](Cc1ccc(Cl)cc1)n1cncn1 (racemic) [Paclobutrazol] | – | – | 4.13 | 4.92 | 6.48 | 4.43 | 6.85 | – | Luciferase IC50 (half-maximal inhibitory concentration) [1]: Inactive
4 | Cc1ccccc1NC(=N)Nc1ccccc1C [1,3-Bis(2-methylphenyl)guanidine] | 5.95 | 4.39 | – | – | – | – | – | – | Luciferase IC50 [1]: Inactive; CYP1A2 IC50 (human CYP1A2 [4]): Inactive; pIC50 (human CYP2D6; CYP2D6 IC50): 8.00
5 | Nc1ccc(N)c2c1C(=O)c1ccccc1C2=O [1,4-Diaminoanthraquinone] | – | – | 6.46 | – | 4.61 | 4.48 | 5.29 | 4.82 | –
6 | Cc1ccc2ccc3cccc4ccc1c2c34 [1-Methylpyrene] | 4.50 | 4.52 | – | – | – | – | – | 4.35 | pIC50 (human CYP1A2 [2]; CYP1A2 IC50): 6.07; pIC50 (human CYP2C9 [3]; CYP2C9 IC50): 4.26; pIC50 (human CYP2D6; CYP2D6 IC50): 4.26
7 | Cc1cc(C)c(N)cc1C [2,4,5-Trimethylaniline] | 5.01 | 4.45 | – | – | – | – | – | 4.80 | pIC50 (human CYP1A2 [2]; CYP1A2 IC50): 6.06; pIC50 (human CYP1A2 [2]; IC50 CYP1A2 assay): 6.10; pIC50 (human CYP2C9 [3]; CYP2C9 IC50): 4.48; pIC50 (human CYP2D6; CYP2D6 IC50): 4.42
8 | O=S(=O)(Oc1ccc(Cl)cc1Cl)c1ccccc1 [2,4-Dichlorophenyl benzenesulfonate] | – | – | 5.80 | 4.41 | 6.31 | 4.19 | 5.67 | 4.26 | AC50 (human CYP1A2 [2]): 2.24 µM; AC50 (human CYP2C9 [3]; CYP2C9 AC50 (half-maximal activity concentration)): 35.7 µM; AC50 (human CYP2C19): 0.77 µM; pIC50 (human CYP2C19; IC50 CYP2C19 assay): 6.38; AC50 (human CYP2D6): 51.1 µM; AC50 (CYP3A4): 3.27 µM
9 | Cc1cccc2sc(N)nc12 [2-Amino-4-methylbenzothiazole] | – | – | – | – | – | – | – | – | CYP2C9 AC50 (half-maximal activity concentration) (human CYP2C9 [5]): Inconclusive inhibitor; AC50 (human CYP1A2 [2]): 21.2 µM; AC50 (human CYP2C19): 27.8 µM; AC50 (human CYP2D6): 41.1 µM; AC50 (CYP3A4): 11.8 µM
10 | Nc1ccc2c(c1)C(=O)c1ccccc1C2=O [2-Aminoanthraquinone] | – | – | 6.70 | 4.65 | 4.86 | 4.38 | 5.79 | 5.57 | –
11 | Cc1cc(-c2ccc(N)c(C)c2)ccc1N [3,3'-Dimethylbenzidine] | 5.20 | 4.97 | – | – | – | – | – | 4.12 | pIC50 (human CYP1A2 [2]; CYP1A2 IC50): 6.33; pIC50 (human CYP1A2 [2]; IC50 CYP1A2 assay): 6.19; pIC50 (human CYP2C9 [3]): 4.63; pIC50 (human CYP2D6): 5.47
12 | CN(C)c1ccc(Cc2ccc(N(C)C)cc2)cc1 [4,4'-Methylenebis(N,N-dimethylaniline)] | – | – | 5.34 | 4.59 | 6.66 | 4.40 | 4.70 | – | Luciferase IC50 (half-maximal inhibitory concentration) [1]: Inactive
13 | Cc1cc(O)c(C(C)(C)C)cc1Sc1cc(C(C)(C)C)c(O)cc1C [4,4'-Thiobis(6-tert-butyl-m-cresol)] | – | – | 4.40 | 5.38 | 6.42 | 4.61 | 5.14 | – | Luciferase IC50 (half-maximal inhibitory concentration) [1]: Inactive
14 | c1ccc(CCCc2ccncc2)cc1 [4-(3-Phenylpropyl)pyridine] | – | – | – | – | – | – | – | 4.26 | pIC50 (human CYP1A2 [2]): 5.94; pIC50 (human CYP2C9 [3]): 5.73; pIC50 (human CYP2C19): 6.15; pIC50 (human CYP2D6): 5.41; pIC50 (CYP3A4): 6.37
15 | OCc1c2ccccc2cc2ccccc12 [9-Anthracenemethanol] | – | – | 6.15 | 4.56 | 4.58 | 4.22 | 4.53 | 4.16 | –
16 | O=C1C(=O)c2cccc3cccc1c23 [Acenaphthenequinone] | – | – | – | – | – | – | – | – | CYP2C9 AC50 (half-maximal activity concentration) (human CYP2C9 [5]): Inconclusive inhibitor; AC50 (human CYP1A2 [2]): 7.99 µM; AC50 (human CYP2C19): 35.7 µM; AC50 (human CYP2D6): 23.4 µM; AC50 (CYP3A4): 23.7 µM
